This is an account of results in ChEMBL document CHEMBL4418499, “Inhibitors of trim33 and methods of use” (2018).

For test [1], the target named is T1, E3 ubiquitin-protein ligase TRIM33 (Homo sapiens, UniProt Q9UPN9).
T1 sequence (Q9UPN9 whole entry): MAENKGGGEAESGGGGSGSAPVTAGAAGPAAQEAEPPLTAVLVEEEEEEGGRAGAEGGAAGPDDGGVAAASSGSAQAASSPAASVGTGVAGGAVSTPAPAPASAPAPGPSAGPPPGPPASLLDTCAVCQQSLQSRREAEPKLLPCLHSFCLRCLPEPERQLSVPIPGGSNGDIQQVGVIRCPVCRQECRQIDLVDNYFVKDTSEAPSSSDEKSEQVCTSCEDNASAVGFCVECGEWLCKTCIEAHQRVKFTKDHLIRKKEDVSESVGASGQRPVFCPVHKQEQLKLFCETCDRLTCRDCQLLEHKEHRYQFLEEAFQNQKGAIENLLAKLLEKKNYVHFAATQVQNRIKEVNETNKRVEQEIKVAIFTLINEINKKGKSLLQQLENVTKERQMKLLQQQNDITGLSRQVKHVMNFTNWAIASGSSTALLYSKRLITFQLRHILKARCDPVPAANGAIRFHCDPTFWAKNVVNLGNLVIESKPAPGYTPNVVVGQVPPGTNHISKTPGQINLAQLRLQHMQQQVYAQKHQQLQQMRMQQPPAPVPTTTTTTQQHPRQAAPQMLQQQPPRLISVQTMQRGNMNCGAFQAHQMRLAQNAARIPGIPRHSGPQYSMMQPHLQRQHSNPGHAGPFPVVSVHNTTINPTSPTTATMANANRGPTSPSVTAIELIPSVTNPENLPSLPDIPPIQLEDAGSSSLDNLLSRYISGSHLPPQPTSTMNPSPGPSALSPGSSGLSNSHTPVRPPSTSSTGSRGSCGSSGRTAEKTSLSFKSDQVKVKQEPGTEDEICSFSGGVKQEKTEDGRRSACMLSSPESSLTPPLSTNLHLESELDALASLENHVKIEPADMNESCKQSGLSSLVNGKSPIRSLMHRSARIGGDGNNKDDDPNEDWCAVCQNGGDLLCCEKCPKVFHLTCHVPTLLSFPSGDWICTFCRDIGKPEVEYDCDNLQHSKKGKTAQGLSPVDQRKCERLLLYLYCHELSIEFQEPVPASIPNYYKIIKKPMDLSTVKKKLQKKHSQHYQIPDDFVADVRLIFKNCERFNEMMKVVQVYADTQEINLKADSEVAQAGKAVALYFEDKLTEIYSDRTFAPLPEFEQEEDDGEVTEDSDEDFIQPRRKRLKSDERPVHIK
Put plainly: Inhibition of recombinant TRIM33 PHD bromodomain (unknown origin) using biotinylated H3 peptide (H3K9me3K18ac) by AlphaScreen assay. A general note: Bead proximity is the source of the signal in Alpha formats.

The target in test [2] is T2, Transcription intermediary factor 1-alpha (Homo sapiens, UniProt O15164).
T2 sequence (O15164 whole entry): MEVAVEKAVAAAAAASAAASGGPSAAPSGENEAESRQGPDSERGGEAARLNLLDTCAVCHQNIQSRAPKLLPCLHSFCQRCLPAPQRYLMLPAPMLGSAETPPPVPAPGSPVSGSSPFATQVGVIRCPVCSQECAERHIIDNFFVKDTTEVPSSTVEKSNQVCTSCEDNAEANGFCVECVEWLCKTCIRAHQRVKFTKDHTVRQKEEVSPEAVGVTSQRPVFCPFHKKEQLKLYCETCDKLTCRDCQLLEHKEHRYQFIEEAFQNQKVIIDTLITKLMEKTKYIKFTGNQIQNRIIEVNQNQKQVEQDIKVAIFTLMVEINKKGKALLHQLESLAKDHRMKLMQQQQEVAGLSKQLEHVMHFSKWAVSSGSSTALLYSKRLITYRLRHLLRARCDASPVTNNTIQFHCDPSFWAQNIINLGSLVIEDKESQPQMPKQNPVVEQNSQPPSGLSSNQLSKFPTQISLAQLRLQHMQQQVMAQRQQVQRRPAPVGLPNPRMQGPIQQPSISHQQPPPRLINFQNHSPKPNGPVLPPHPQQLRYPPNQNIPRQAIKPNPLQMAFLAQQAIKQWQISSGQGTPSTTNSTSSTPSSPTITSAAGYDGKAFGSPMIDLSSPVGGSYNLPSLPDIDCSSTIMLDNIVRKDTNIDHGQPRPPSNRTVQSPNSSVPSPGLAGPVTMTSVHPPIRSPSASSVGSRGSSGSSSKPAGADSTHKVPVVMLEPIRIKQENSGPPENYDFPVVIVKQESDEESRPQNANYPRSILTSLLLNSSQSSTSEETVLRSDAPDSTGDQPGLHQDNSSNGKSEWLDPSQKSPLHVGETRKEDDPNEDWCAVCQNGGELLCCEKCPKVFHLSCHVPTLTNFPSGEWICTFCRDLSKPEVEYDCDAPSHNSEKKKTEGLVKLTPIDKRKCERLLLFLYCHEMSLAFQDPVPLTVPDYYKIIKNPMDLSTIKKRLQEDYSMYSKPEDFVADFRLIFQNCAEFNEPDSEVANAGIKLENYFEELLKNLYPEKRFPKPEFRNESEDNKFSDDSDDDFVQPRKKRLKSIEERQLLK
The experiment in a line: Inhibition of recombinant TRIM24 (unknown origin) using biotinylated H3 peptide (H3K9me3K18ac) by AlphaScreen assay.

The species named for test [3] is Homo sapiens. Put plainly: Selectivity index, ratio of IC50 for recombinant TRIM24 (unknown origin) to IC50 for recombinant TRIM33 PHD bromodomain (unknown origin).

On to `COC(=O)c1ccc2nc(-c3c[nH]c(C)n3)c(NCCN3CCOCC3)n2c1`, for which the IC50 turned out to be 71.4 µM in test [1] and 2870 µM in test [2]. Also, the Ratio IC50 in test [3] is 40.3.
On the same counts, the results for `c1ccn2c(NC3CCCCC3)c(-c3ccc4nccn4c3)nc2c1` are 13.8 µM, 249 µM and 18.1.
`Cc1[nH]cnc1-c1nc2cnccn2c1NCc1ccc(C#N)cc1`: the IC50 in test [1] is 121 µM; in test [2], 98.4 µM. Besides, the Ratio IC50 in test [3] is 0.82.
Regarding `COc1ccc(Nc2c(-c3nc[nH]c3C)nc3cnccn23)cc1`, the IC50 was found to be 14.7 µM in test [1] and 7.32 µM in test [2]. In addition, in test [3], the Ratio IC50 stood at 0.5.
Take `COc1ccc(Nc2c(-c3c[nH]c(C)n3)nc3cnccn23)cc1`: the IC50 in test [1] amounted to 153 µM; in test [2] it was 385 µM.
On the same counts, the results for `COc1cc(C=O)ccc1O` [VANILLIN] are 0.326 µM and 0.162 µM.
Regarding `CCCOc1ccn2c(C(C)=O)cc(-c3nc4ccc(C(=O)OC)cn4c3NCCN3CCOCC3)c2c1`, the IC50 worked out at 95.6 µM in test [1] and 1040 µM in test [2]. The Ratio IC50 in test [3] is 10.9.
Turning to `COc1ccc(CCNc2c(-c3c[nH]c(C)n3)nc3ccc(Br)cn23)cc1OC`, the IC50 in test [2] was 63.5 µM.
Take `COC(=O)c1ccc2nc(-c3nc[nH]c3C)c(NCCN3CCOCC3)n2c1`: in test [3], the Ratio IC50 worked out at 11.8.
Same read-out and setting: then `Cc1[nH]cnc1-c1nc2ccccn2c1NCCN1CCOCC1`, with 13.3.
In the case of `CCCOc1ccn2c(C(C)=O)cc(-c3nc4cnccn4c3NC3CCCCC3)c2c1`, the IC50 in test [1] was 80 µM.
Turning to `Cc1nc(-c2nc3ccc(Br)cn3c2NC2CCCCC2)c[nH]1`, the IC50 was found to be 3.6 µM in test [1] and 13 µM in test [2]. In addition, the Ratio IC50 in test [3] is 3.62.
Turning to `CCCOc1ccn2c(C(C)=O)cc(-c3nc4ccc(C(=O)OC)cn4c3NCCc3ccc(OC)c(OC)c3)c2c1`, the IC50 in test [2] stood at 5650 µM.
On to `COC(=O)c1ccc2nc(-c3nc[nH]c3C)c(NC3CCCCC3)n2c1`, for which the IC50 in test [2] is 143 µM.
Take `O=C1CCCC1` [CYCLOPENTANONE]: the IC50 in test [1] came out at 0.234 µM; in test [2] it was 0.136 µM.
On to `COc1ccc(CCNc2c(-c3ccc4nccn4c3)nc3cnccn23)cc1OC`, for which the IC50 in test [1] is 29.7 µM. For the same molecule, the Ratio IC50 in test [3] was 1.9.
For `Cc1cccc2c(C=O)c[nH]c12`, the IC50 came out at 0.24 µM in test [1] and 0.157 µM in test [2].
Consider `Cn1cccc1C=O`, for which the IC50 in test [1] worked out at 0.305 µM; in test [2] it was 0.18 µM.
Turning to `Cc1ncc(CO)c(C=O)c1O`, the IC50 in test [1] was 0.283 µM; in test [2], 0.225 µM.
With `Cc1nc[nH]c1-c1nc2cnccn2c1NC1CCCCC1`, the IC50 in test [2] came out at 90.1 µM.
On to `COc1ccc(Nc2c(-c3nc[nH]c3C)nc3ccccn23)cc1`, for which the Ratio IC50 in test [3] was 5.35.
As for `O=Cc1ccc(N2CCCC2)cc1`, the IC50 stood at 0.269 µM in test [1] and 0.133 µM in test [2].
Regarding `CCCOc1ccn2c(C(C)=O)cc(-c3nc4ccc(C(=O)OC)cn4c3NCCOC)c2c1`, the IC50 in test [2] came to 2880 µM.
In the case of `c1ccn2c(NCCN3CCOCC3)c(-c3ccc4nccn4c3)nc2c1`, the IC50 in test [1] turned out to be 366 µM. For the same molecule, in test [3], the Ratio IC50 came to 48.4.
On the same counts, the results for `COCCNc1c(-c2nc[nH]c2C)nc2cnccn12` are 204 µM and 115.
As to `CCCOc1ccn2c(C(C)=O)cc(-c3nc4ccc(C(=O)OC)cn4c3NC3CCCCC3)c2c1`, the IC50 in test [2] was found to be 255 µM.
With `COC(=O)c1ccc2nc(-c3ccc4nccn4c3)c(NCc3ccc(C#N)cc3)n2c1`, the IC50 in test [1] is 125 µM. The Ratio IC50 in test [3] came to 486.
`COc1ccc(CCNc2c(-c3c[nH]c(C)n3)nc3ccccn23)cc1OC`: the IC50 in test [2] is 44.4 µM.
Regarding `COC(=O)c1ccc2nc(-c3ccc4nccn4c3)c(NCCN3CCOCC3)n2c1`, the IC50 was found to be 303 µM in test [1] and 700 µM in test [2].
In the case of `COc1ccc(CCNc2c(-c3ccc4nccn4c3)nc3ccccn23)cc1OC`, the IC50 in test [2] is 1510 µM.
On to `O=Cc1cccnc1Br`, for which the IC50 turned out to be 5.48 µM in test [1] and 7.86 µM in test [2].
For `COC(=O)c1ccc2nc(-c3ccc4nccn4c3)c(NC3CCCCC3)n2c1`, the IC50 stood at 42.6 µM in test [1] and 502 µM in test [2].
With `Cc1[nH]cnc1-c1nc2ccc(Br)cn2c1NCCN1CCOCC1`, the IC50 in test [2] stood at 117 µM.
For the molecule `Cc1nc(-c2nc3cnccn3c2NC2CCCCC2)c[nH]1`, the figures for the IC50 in test [1] and in test [2] were 415 µM and 186 µM, respectively.
Consider `c1cn2c(NC3CCCCC3)c(-c3ccc4nccn4c3)nc2cn1`, for which the IC50 in test [1] is 169 µM; in test [2] it was 320 µM.
`Brc1ccc2nc(-c3ccc4nccn4c3)c(NCCN3CCOCC3)n2c1`: the IC50 in test [2] amounted to 1380 µM.
Still for that read-out and setting: in the case of `Brc1ccc2nc(-c3ccc4nccn4c3)c(NC3CCCCC3)n2c1` it was 100 µM.
As for `COc1ccc(Nc2c(-c3nc[nH]c3C)nc3ccc(Br)cn23)cc1`, the Ratio IC50 in test [3] was 189.
In the case of `COCCNc1c(-c2nc[nH]c2C)nc2ccc(Br)cn12`, in test [2], the IC50 came out at 134 µM.
As to `COCCNc1c(-c2c[nH]c(C)n2)nc2ccc(C(=O)OC)cn12`, the IC50 in test [1] is 10.5 to 56.9 µM; in test [2], 4.07 µM.
`COC(=O)c1ccc2nc(-c3c[nH]c(C)n3)c(NCc3ccc(C#N)cc3)n2c1`: the IC50 in test [1] is 650 µM.
Regarding `O=Cc1cccc(-c2ccc(C(=O)O)cc2)c1`, the IC50 in test [1] stood at 0.336 µM; in test [2], 0.165 µM.
On the same counts, the results for `Cc1nc[nH]c1-c1nc2ccccn2c1NC1CCCCC1` are 1.07 µM and 9.03 µM.
Regarding `COC(=O)c1ccc2nc(-c3nc[nH]c3C)c(NCCc3ccc(OC)c(OC)c3)n2c1`, the IC50 in test [2] was 377 µM.
Regarding `CCCOc1ccn2c(C(C)=O)cc(-c3nc4ccccn4c3NCc3ccc(C#N)cc3)c2c1`, the IC50 in test [1] was 46.3 µM.
For `CCCOc1ccn2c(C(C)=O)cc(-c3nc4cnccn4c3NCCOC)c2c1`, the IC50 in test [2] is 2850 µM.
Consider `COCCNc1c(-c2nc[nH]c2C)nc2ccc(C(=O)OC)cn12`, for which the IC50 in test [2] is 511 µM.
Regarding `O=Cc1ccccc1O`, the IC50 was determined as 0.299 µM in test [1] and 0.221 µM in test [2].
As to `COc1ccc(Nc2c(-c3[nH]cnc3C)nc3ccc(Br)cn23)cc1`, the IC50 in test [1] is 0.0137 µM; in test [2], 2.59 µM.
Take `COc1ccc(C=O)c(O)c1`: the IC50 in test [1] turned out to be 0.301 µM; in test [2] it was 0.22 µM.
In the case of `CCCOc1ccn2c(C(C)=O)cc(-c3nc4ccc(C(=O)OC)cn4c3NCc3ccc(C#N)cc3)c2c1`, the IC50 in test [1] came out at 65.1 µM. Further, the Ratio IC50 in test [3] was found to be 515.
Turning to `COc1ccc(CCNc2c(-c3nc[nH]c3C)nc3ccc(Br)cn23)cc1OC`, the IC50 in test [2] was 28.9 µM.
Turning to `O=C1CCCCCCC1` [CYCLOOCTANONE], the IC50 in test [1] was determined as 0.25 µM; in test [2], 0.166 µM.
As to `Cc1[nH]cnc1-c1nc2ccccn2c1NC1CCCCC1`, in test [3], the Ratio IC50 was 8.45.

As a reminder, the IC50 is the concentration that gives 50% inhibition.
